According to ChEMBL document CHEMBL1130747, “Synthesis of novel cyclic protease inhibitors using Grubbs olefin metathesis” (Bioorg Med Chem Lett, 1998):

Target: T1, Rhizopuspepsin (Rhizopus microsporus var. chinensis, UniProt P06026)
T1 sequence (P06026 whole entry): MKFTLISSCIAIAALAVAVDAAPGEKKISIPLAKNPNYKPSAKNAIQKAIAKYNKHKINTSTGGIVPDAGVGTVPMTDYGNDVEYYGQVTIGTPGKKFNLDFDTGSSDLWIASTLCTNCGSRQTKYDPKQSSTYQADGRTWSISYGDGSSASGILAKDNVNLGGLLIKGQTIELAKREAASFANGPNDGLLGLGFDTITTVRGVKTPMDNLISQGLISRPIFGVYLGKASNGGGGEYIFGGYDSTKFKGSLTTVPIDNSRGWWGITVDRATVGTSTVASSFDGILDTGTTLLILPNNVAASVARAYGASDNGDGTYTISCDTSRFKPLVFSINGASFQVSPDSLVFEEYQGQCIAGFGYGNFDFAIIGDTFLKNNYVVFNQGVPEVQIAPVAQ
Experiment: Inhibition of Rhizopus chinensis pepsin using fluorescence assay

| SMILES | Ki [nM] |
| --- | --- |
| CC(C)[C@H]1NC(=O)[C@H](NC(=O)OC(C)(C)C)CCC/C=C\CCC[C@H](CO)NC1=O | 336 |
| CC(C)[C@H]1NC(=O)[C@H](NC(=O)OC(C)(C)C)CCCCCCCC[C@H](CO)NC1=O | 1.31 |
